Measurements reported in patent publication US9260429B2, “Pyrido[3,4-B]indoles and methods of use” (Medivation Technologies, Inc., priority 2008, dated 2016).
Read-outs that look alike come from different tables or passages of the source.

How the values were obtained:
[1] = biological target: T1, human recombinant dopamine D2L receptor (Homo sapiens, UniProt P14416); assay: Dopamine D2L radioligand binding ([3H]Spiperone); conditions: for inhibition at 3 µM: compound concentration 3 μM; for inhibition at 10 µM: compound concentration 10 μM
T1 construct: expressed in transfected cells; host or cells: CHO cells
In short: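 CHO-expressed receptor in 50 mM Tris-HCl pH 7.4 with ascorbic acid, 0.001% BSA, 150 mM NaCl; 0.16 nM [3H]spiperone, 120 min at 25 °C; nonspecific binding with haloperidol.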

[2] = biological target: T2, human recombinant adrenergic α1D receptor (Homo sapiens, UniProt P25100); assay: Adrenergic α1D radioligand binding ([3H]Prozosin)
T2 construct: expressed in transfected cells; host or cells: HEK-293 cells
T2 sequence (P25100 1-572): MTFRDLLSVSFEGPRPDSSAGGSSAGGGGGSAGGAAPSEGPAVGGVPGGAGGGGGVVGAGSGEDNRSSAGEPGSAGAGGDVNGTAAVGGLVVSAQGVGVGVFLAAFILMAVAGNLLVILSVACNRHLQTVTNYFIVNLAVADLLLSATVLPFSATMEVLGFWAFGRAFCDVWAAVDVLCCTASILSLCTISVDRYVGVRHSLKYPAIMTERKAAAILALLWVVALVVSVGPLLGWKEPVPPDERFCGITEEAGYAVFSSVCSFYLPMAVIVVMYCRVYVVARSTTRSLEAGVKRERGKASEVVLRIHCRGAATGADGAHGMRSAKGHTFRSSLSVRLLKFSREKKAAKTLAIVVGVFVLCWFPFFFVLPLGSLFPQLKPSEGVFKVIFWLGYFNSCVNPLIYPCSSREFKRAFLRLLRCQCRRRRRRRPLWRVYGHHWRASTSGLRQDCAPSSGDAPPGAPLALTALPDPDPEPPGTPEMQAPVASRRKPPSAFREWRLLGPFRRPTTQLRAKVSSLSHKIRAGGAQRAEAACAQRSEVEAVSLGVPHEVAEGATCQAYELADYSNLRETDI
Method: To evaluate in radioligand binding assays the activity of compounds of the invention, human recombinant adrenergic a1D receptor expressed in human embryonic kidney (HEK-293) cells (Kenny, B. A. et al. Br. J. Pharmacol. 115(6):981, 1995) in a 50 mM Tris-HCl buffer, pH 7.4, was used. Compounds of invention were incubated with 0.6 nM [^3H]Prozosin for 60 minutes at 25° C. Non-specific binding was estimated in the presence of 10 μM phentolamine. Receptor proteins were filtered and washed, the filters were then counted to determine [^3H]Prozosin specifically bound. Compounds were screened at 1 μM or lower, using 1% DMSO as vehicle. Biochemical assay results are presented as the percent inhibition of specific binding in Table 4. Adrenergic a2A

[3] = biological target: T3, human recombinant serotonin (5-Hydroxytryptamine) 5-HT2C receptor (Homo sapiens, UniProt P28335); assay: Serotonin 5-HT2C radioligand binding ([3H]Mesulergine); conditions: for inhibition at 0.01 µM: compound concentration 10 nM; for inhibition at 0.03 µM: compound concentration 0.03 μM; for inhibition at 0.1 µM: compound concentration 0.1 μM; for inhibition at 0.3 µM: compound concentration 0.3 μM
T3 construct: expressed in transfected cells; host or cells: CHO-K1 cells
T3 sequence (P28335 33-458): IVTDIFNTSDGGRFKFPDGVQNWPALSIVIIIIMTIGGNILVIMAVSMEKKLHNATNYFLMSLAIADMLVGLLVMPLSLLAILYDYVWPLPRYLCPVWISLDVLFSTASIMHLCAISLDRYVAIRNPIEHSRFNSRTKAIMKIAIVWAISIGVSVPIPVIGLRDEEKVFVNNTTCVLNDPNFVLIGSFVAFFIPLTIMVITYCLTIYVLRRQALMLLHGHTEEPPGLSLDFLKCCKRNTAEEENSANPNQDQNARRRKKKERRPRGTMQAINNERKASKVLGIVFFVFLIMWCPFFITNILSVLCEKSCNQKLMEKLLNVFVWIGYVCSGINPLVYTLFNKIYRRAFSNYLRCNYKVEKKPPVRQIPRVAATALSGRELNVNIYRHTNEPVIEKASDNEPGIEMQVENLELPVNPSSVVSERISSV
Method: Compounds of the invention were incubated with 1 nM [^3H]Mesulergine for 60 minutes at 25° C. Non-specific binding was estimated in the presence of 1 μM Mianserin. Receptor proteins were filtered and washed, the filters were then counted to determine [^3H]Mesulergine specifically bound. […] Biochemical assay results are presented as the percent inhibition of specific binding in Table 5.

[4] = 2 h, 1 μM ligand conc., read-out: Percent Inhibition of ligand binding Dopamine (1 μM ligand conc.) D2L
[5] = compound concentration 1 μM, read-out: Percentage inhibition of ligand binding to D2L receptor
[6] = read-out: Percentage inhibition of ligand binding to D2L receptor
[7] = 1 h, read-out: Percent Inhibition of ligand binding Adrenergic (1 μM ligand conc.) α1D
[8] = compound concentration 1 μM, read-out: Percentage inhibition of ligand binding to Adrenergic α1D receptor
[9] = 1 h, read-out: Percent Inhibition of ligand binding Serotonin (1 μM ligand concentration) 5-HT2C
[10] = read-out: Percentage inhibition of ligand binding to 5-HT2C receptor
[11] = compound concentration 1 μM, read-out: Percentage inhibition of ligand binding to 5-HT2C receptor

T1 sequence (P14416 whole entry): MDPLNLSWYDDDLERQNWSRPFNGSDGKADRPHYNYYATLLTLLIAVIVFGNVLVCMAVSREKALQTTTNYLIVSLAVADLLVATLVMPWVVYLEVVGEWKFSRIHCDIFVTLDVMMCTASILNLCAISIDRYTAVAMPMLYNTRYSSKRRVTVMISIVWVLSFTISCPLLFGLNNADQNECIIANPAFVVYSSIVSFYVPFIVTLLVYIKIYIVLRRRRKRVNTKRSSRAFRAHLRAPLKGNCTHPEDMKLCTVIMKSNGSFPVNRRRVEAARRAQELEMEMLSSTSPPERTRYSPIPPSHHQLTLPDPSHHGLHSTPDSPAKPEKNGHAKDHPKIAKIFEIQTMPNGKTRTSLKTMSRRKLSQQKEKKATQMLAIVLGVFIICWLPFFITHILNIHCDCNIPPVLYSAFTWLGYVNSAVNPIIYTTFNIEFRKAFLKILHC

With `C/C(=C\n1c2c(c3cc(C)ccc31)CCN(C)C2)c1ccc(F)cc1` [Compound 91, (E)-9-(2-(4-fluorophenyl)prop-1-enyl)-2,6-dimethyl-2,3,4,9-tetrahydro-1H-pyrido[3,4-b]indole] the inhibition at 1 µM [1, 4] was 27%, the inhibition at 1 µM [1, 5] was 44% and the inhibition at 3 µM [1, 6] was 64%. It also gave an inhibition at 10 µM [1, 6] of 91%, an inhibition at 1 µM [2, 7] of 73% and an inhibition at 1 µM [2, 8] of 73%. The inhibition at 1 µM [3, 9] was 104%, the inhibition at 0.003 µM ([3]; compound concentration 3 nM, read-out: Percentage inhibition of ligand binding to 5-HT2C receptor) was 22% and the inhibition at 0.01 µM [3, 10] was 58%. It also gave an inhibition at 0.03 µM [3, 10] of 77%, an inhibition at 0.1 µM [3, 10] of 87% and an inhibition at 0.3 µM [3, 10] of 93%. It also gave an inhibition at 1 µM [3, 11] of 104%.

`C/C(=C\n1c2c(c3cc(C)ccc31)CCN(C)C2C)c1ccccc1F` (stereo not shown) [Compound 166] was tested, and the inhibition at 1 µM [1, 4] was 21%, the inhibition at 1 µM [1, 5] was 21% and the inhibition at 3 µM [1, 6] was 12%. For the same compound, the inhibition at 10 µM [1, 6] was 50%, the inhibition at 1 µM [2, 7] was 69% and the inhibition at 1 µM [2, 8] was 69%. For the same compound, the inhibition at 1 µM [3, 9] was 96%, the inhibition at 0.01 µM [3, 10] was 33% and the inhibition at 0.03 µM [3, 10] was 62%. It also gave an inhibition at 0.1 µM [3, 10] of 87%, an inhibition at 0.3 µM [3, 10] of 93% and an inhibition at 1 µM [3, 11] of 96%.

Work on `CN1CCc2c(n(CC(C)(O)c3ccc(F)cc3)c3ccc(Cl)cc23)C1` (stereo not shown) [Compound 62, 1-(6-chloro-2-methyl-3,4-dihydro-1H-pyrido[3,4-b]indol-9(2H)-yl)-2-(4-fluorophenyl)propan-2-ol] yielded an inhibition at 1 µM [1, 4] of 81%, an inhibition at 1 µM [2, 7] of 44% and an inhibition at 1 µM [3, 9] of 95%.

`CCC1c2c(c3cc(C)ccc3n2/C=C(\C)c2ccc(Cl)cc2)CCN1C` (stereo not shown) [Compound 160, 9-(2-(4-chlorophenyl)prop-1-enyl)-1-ethyl-2,6-dimethyl-2,3,4,9-tetrahydro-1H-pyrido[3,4-b]indole] showed an inhibition at 1 µM [1, 4] of -1%, an inhibition at 1 µM [2, 7] of 25% and an inhibition at 1 µM [3, 9] of 103%.

In the case of `COC(=O)Cn1c2c(c3cc(Cl)ccc31)CCN(C)C2` [Compound 54, methyl 2-(6-chloro-2-methyl-3,4-dihydro-1H-pyrido[3,4-b]indol-9(2H)-yl)acetate], the inhibition at 1 µM [1, 4] is reported as -16%, the inhibition at 1 µM [2, 7] is reported as 11% and the “Percent Inhibition of ligand binding Serotonin (1 μM ligand concentration) 5-HT2C” value ([3]; 1 μM ligand concentration) is reported as −1%.

Work on `CN1CCc2c(n(CCCC(=O)N3CCCCC3)c3ccc(Cl)cc23)C1` [Compound 44, 4-(6-chloro-1,2,3,4-tetrahydro-2-methylpyrido[3,4-b]indol-9-yl)-1-(piperidin-1-yl)butan-1-one] yielded an inhibition at 1 µM [1, 4] of 8%, an inhibition at 1 µM [2, 7] of 61% and an inhibition at 1 µM [3, 9] of 54%.

`Cc1ccc2c(c1)c1c(n2CC(=O)O)CN(C)CC1` [Compound 53, 2-(1,2,3,4-tetrahydro-2,6-dimethylpyrido[3,4-b]indol-9-yl)acetic acid] gave an inhibition at 1 µM [1, 4] of 6%, an inhibition at 1 µM [2, 7] of 6% and an inhibition at 1 µM [3, 9] of -3%.

`Cc1ccc(CCn2c3c(c4cc(Cl)ccc42)CCN(C)C3C)cn1` (stereo not shown) [Compound 80] was tested, and the inhibition at 1 µM [1, 4] was 5%, the inhibition at 1 µM [2, 7] was 89% and the inhibition at 1 µM [3, 9] was 79%.

`CC1c2c(c3cc(Cl)ccc3n2CCc2ccc(F)cc2)CCN1C` (stereo not shown) [Compound 81] showed an inhibition at 1 µM [1, 4] of 21%, an inhibition at 1 µM [2, 7] of 64% and an inhibition at 1 µM [3, 9] of 88%.

In the case of `Cc1ccc2c(c1)c1c(n2CC(C)(O)c2ccc(F)cc2)CN(C)CC1` (stereo not shown) [Compound 61, 1-(2,6-dimethyl-3,4-dihydro-1H-pyrido[3,4-b]indol-9(2H)-yl)-2-(4-fluorophenyl)propan-2-ol], the inhibition at 1 µM [1, 4] is reported as 41%, the inhibition at 1 µM [2, 7] is reported as 49% and the inhibition at 1 µM [3, 9] is reported as 81%.

`Cc1ccc(CCCn2c3c(c4cc(Cl)ccc42)CCN(C)C3)cn1` [Compound 56, 6-chloro-2-methyl-9-(3-(6-methylpyridin-3-yl)propyl)-2,3,4,9-tetrahydro-1H-pyrido[3,4-b]indole] gave an inhibition at 1 µM [1, 4] of 9%, an inhibition at 1 µM [2, 7] of 16% and an inhibition at 1 µM [3, 9] of -3%.

Work on `CCC1c2c(c3cc(C)ccc3n2C#Cc2ccc(Cl)cc2)CCN1C` (stereo not shown) [Compound 162, 9-((4-chlorophenyl)ethynyl)-1-ethyl-2,6-dimethyl-2,3,4,9-tetrahydro-1H-pyrido[3,4-b]indole] yielded an inhibition at 1 µM [1, 4] of 4%, an inhibition at 1 µM [2, 7] of 19% and an inhibition at 1 µM [3, 9] of 101%.

`Cc1ccc2c(c1)c1c(n2CC(O)c2ccccc2F)CN(C)CC1` (stereo not shown) [Compound 60, 2-(2,6-dimethyl-3,4-dihydro-1H-pyrido[3,4-b]indol-9(2H)-yl)-1-(2-fluorophenyl)ethanol] gave an inhibition at 1 µM [1, 4] of 18%, an inhibition at 1 µM [2, 7] of 29% and an inhibition at 1 µM [3, 9] of 5%.

`CN1CCc2c(n(CC(O)c3ccccc3F)c3ccc(Cl)cc23)C1` (stereo not shown) [Compound 59, 2-(6-chloro-2-methyl-3,4-dihydro-1H-pyrido[3,4-b]indol-9(2H)-yl)-1-(2-fluorophenyl)ethanol] showed an inhibition at 1 µM [1, 4] of 35%, an inhibition at 1 µM [2, 7] of 30% and an inhibition at 1 µM [3, 9] of 74%.

`CN1CCc2c(n(CC(=O)Nc3ccc(F)cc3)c3ccc(Cl)cc23)C1` [Compound 15, 2-(6-chloro-1,2,3,4-tetrahydro-2-methylpyrido[3,4-b]indol-9-yl)-N-(4-fluorophenyl)acetamide] gave an inhibition at 1 µM [1, 4] of -5%, an inhibition at 1 µM [2, 7] of 5% and an inhibition at 1 µM [3, 9] of 15%.

With `CC(C)CCN(C)C(=O)Cn1c2c(c3cc(Cl)ccc31)CCN(C)C2` [Compound 14, 2-(6-chloro-1,2,3,4-tetrahydro-2-methylpyrido[3,4-b]indol-9-yl)-N-isopentyl-N-methylacetamide] the inhibition at 1 µM [1, 4] was 6%, the inhibition at 1 µM [2, 7] was 33% and the inhibition at 1 µM [3, 9] was 20%.

`CN1CCc2c(n(CC(O)c3ccccc3)c3ccc(Cl)cc23)C1` (stereo not shown) [Compound 71] was tested, and the inhibition at 1 µM [1, 4] was 21%, the inhibition at 1 µM [2, 7] was 58% and the inhibition at 1 µM [3, 9] was 81%.

With `C/C(=C\n1c2c(c3cc(C)ccc31)CCN(C)C2C)c1ccc(Cl)cc1` (stereo not shown) [Compound 161, 9-(2-(4-chlorophenyl)prop-1-enyl)-1,2,6-trimethyl-2,3,4,9-tetrahydro-1H-pyrido[3,4-b]indole] the inhibition at 1 µM [1, 4] was 0%, the inhibition at 1 µM [2, 7] was 32% and the inhibition at 1 µM [3, 9] was 99%.

`CC1CCN(C(=O)Cn2c3c(c4cc(Cl)ccc42)CCN(C)C3)CC1` [Compound 38, 2-(6-chloro-1,2,3,4-tetrahydro-2-methylpyrido[3,4-b]indol-9-yl)-1-(4-methylpiperidin-1-vyl)ethanone] showed an inhibition at 1 µM [1, 4] of -8%, an inhibition at 1 µM [2, 7] of 25% and an inhibition at 1 µM [3, 9] of 14%.

Work on `CCC1c2c(c3cc(Cl)ccc3n2/C=C(\C)c2ccc(Cl)cc2)CCN1C` (stereo not shown) [Compound 100, 6-chloro-9-(2-(4-chlorophenyl)prop-1-enyl)-1-ethyl-2-methyl-2,3,4,9-tetrahydro-1H-pyrido[3,4-b]indole] yielded an inhibition at 1 µM [1, 4] of -11%, an inhibition at 1 µM [2, 7] of 8% and an inhibition at 1 µM [3, 9] of 98%.

For `C/C(=C/n1c2c(c3cc(Cl)ccc31)CCN(C)C2C)c1ccccc1F` (stereo not shown) [Compound 167], the inhibition at 1 µM [1, 4] was 22%, the inhibition at 1 µM [2, 7] was 36% and the inhibition at 1 µM [3, 9] was 95%.
